Laboratory results from ChEMBL document CHEMBL1201862, “PubChem BioAssay data set” (2004).
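Following 48 hours of exposure in 96-well plates, responses at five concentrations were used to interpolate endpoints linearly. GI50 marks 50% less growth.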 Active and inactive are the calls of the source. Cut-off read from the data, not from the text of the source: active = GI50 up to about 1.1 µM and inactive = higher.

Key:
Experiment in all cases: NCI-60 cell line screen, 48 h
KM12 = test system: KM12
HOP-92 = test system: HOP-92
SK-MEL-5 = test system: SK-MEL-5
IGROV-1 = test system: IGROV-1
CAKI-1 = test system: CAKI-1
UACC-62 = test system: UACC-62
SNB-75 = test system: SNB-75
SN12C = test system: SN12C
OVCAR-4 = test system: OVCAR-4
NCI-H522 = test system: NCI-H522
COLO 205 = test system: COLO 205
Malme-3M = test system: Malme-3M
NCI-H226 = test system: NCI-H226
NCI-H460 = test system: NCI-H460
CCRF-CEM = test system: CCRF-CEM
HCC 2998 = test system: HCC 2998
SK-MEL-28 = test system: SK-MEL-28
UO-31 = test system: UO-31
NCI/ADR-RES = test system: NCI/ADR-RES
MDA-MB-435 = test system: MDA-MB-435

| SMILES | GI50 (KM12) | GI50 (HOP-92) | GI50 (SK-MEL-5) | GI50 (IGROV-1) | GI50 (CAKI-1) | GI50 (UACC-62) | GI50 (SNB-75) | GI50 (SN12C) | GI50 (OVCAR-4) | GI50 (NCI-H522) | GI50 (COLO 205) | GI50 (Malme-3M) | GI50 (NCI-H226) | GI50 (NCI-H460) | GI50 (CCRF-CEM) | GI50 (HCC 2998) | GI50 (SK-MEL-28) | GI50 (UO-31) | GI50 (NCI/ADR-RES) | GI50 (MDA-MB-435) |
| --- | --- | --- | --- | --- | --- | --- | --- | --- | --- | --- | --- | --- | --- | --- | --- | --- | --- | --- | --- | --- |
| CCOC(=O)NC(=O)c1cn(CCNCCO)c(=O)[nH]c1=O | > 100 µM (inactive) | > 100 µM (inactive) | > 100 µM (inactive) | > 100 µM (inactive) | > 100 µM (inactive) | > 100 µM (inactive) | 3.36 µM (inactive) | > 100 µM (inactive) | > 100 µM (inactive) | > 100 µM (inactive) | > 100 µM (inactive) | > 100 µM (inactive) | > 100 µM (inactive) | > 100 µM (inactive) | > 100 µM (inactive) | – | – | – | – | – |
| NC(S)=Nc1cc(Cl)ccc1Cl | > 100 µM (inactive) | 85.1 µM (inactive) | > 100 µM (inactive) | > 100 µM (inactive) | > 100 µM (inactive) | > 100 µM (inactive) | 55.7 µM (inactive) | > 100 µM (inactive) | > 100 µM (inactive) | > 100 µM (inactive) | > 100 µM (inactive) | > 100 µM (inactive) | > 100 µM (inactive) | > 100 µM (inactive) | > 100 µM (inactive) | > 100 µM (inactive) | > 100 µM (inactive) | > 100 µM (inactive) | – | – |
| c1nc2nc[nH]c(SSc3[nH]cnc4ncnc3-4)c-2n1 | 1.06 µM (active) | < 0.01 µM (active) | 4.83 µM (inactive) | > 22.3 µM (inactive) | – | < 0.01 µM (active) | 0.463 µM (active) | 12.8 µM (inactive) | – | – | 0.653 µM (active) | 0.376 µM (active) | 0.476 µM (active) | 2.65 µM (inactive) | 0.202 µM (active) | – | 61.8 µM (inactive) | – | 0.217 µM (active) | – |
| CC1CN=C(Nc2cccc(C(F)(F)F)c2)S1 (stereo not given) | 81.5 µM (inactive) | – | – | – | – | 97.3 µM (inactive) | 88.1 µM (inactive) | – | – | 42.4 µM (inactive) | – | > 100 µM (inactive) | 79.3 µM (inactive) | 52.8 µM (inactive) | 31.9 µM (inactive) | > 100 µM (inactive) | > 100 µM (inactive) | 27.5 µM (inactive) | – | 53.1 µM (inactive) |
| CC(=O)Nc1ccc(C(=O)NN2C(=O)C(Cl)C2/C=C/c2ccccc2)cc1 (stereo not given) | > 100 µM (inactive) | > 100 µM (inactive) | > 100 µM (inactive) | > 100 µM (inactive) | – | > 100 µM (inactive) | > 100 µM (inactive) | – | – | > 100 µM (inactive) | > 100 µM (inactive) | > 100 µM (inactive) | > 100 µM (inactive) | > 100 µM (inactive) | > 100 µM (inactive) | > 100 µM (inactive) | > 100 µM (inactive) | > 100 µM (inactive) | – | – |
| Nc1nc(=O)n(CC(O)CO)s1 (stereo not given) | – | – | > 100 µM (inactive) | > 100 µM (inactive) | – | > 100 µM (inactive) | > 100 µM (inactive) | > 100 µM (inactive) | > 100 µM (inactive) | – | > 100 µM (inactive) | > 100 µM (inactive) | > 100 µM (inactive) | > 100 µM (inactive) | > 100 µM (inactive) | > 100 µM (inactive) | < 0.01 µM (active) | > 100 µM (inactive) | – | – |
| CC(C)(C)[Si](OC1CC(n2cnc3c(N)ncnc32)OC1CO)(c1ccccc1)c1ccccc1 (stereo not given) | 19.8 µM (inactive) | 20.2 µM (inactive) | – | 20.8 µM (inactive) | – | – | – | 20.9 µM (inactive) | 15 µM (inactive) | 16 µM (inactive) | 30.3 µM (inactive) | 19 µM (inactive) | 12.4 µM (inactive) | 16.3 µM (inactive) | 12.9 µM (inactive) | 67.5 µM (inactive) | 21.5 µM (inactive) | 23.7 µM (inactive) | – | – |
| COc1ccc(N2C(=O)CSC2c2c[nH]c3ccccc23)cc1 (stereo not given) | 28.4 µM (inactive) | 52.7 µM (inactive) | 88.5 µM (inactive) | > 100 µM (inactive) | – | 44.9 µM (inactive) | > 100 µM (inactive) | > 100 µM (inactive) | > 100 µM (inactive) | 24.5 µM (inactive) | 92.7 µM (inactive) | – | – | 32.4 µM (inactive) | 39.5 µM (inactive) | > 100 µM (inactive) | > 100 µM (inactive) | 49.8 µM (inactive) | – | 41.5 µM (inactive) |
| CCOC(=O)[C@H]1Nc2c(cccc2[N+](=O)[O-])[C@H]2OCC[C@@H]12 | > 100 µM (inactive) | – | > 100 µM (inactive) | > 100 µM (inactive) | > 100 µM (inactive) | > 100 µM (inactive) | > 100 µM (inactive) | > 100 µM (inactive) | > 100 µM (inactive) | > 100 µM (inactive) | > 100 µM (inactive) | > 100 µM (inactive) | > 100 µM (inactive) | > 100 µM (inactive) | – | > 100 µM (inactive) | > 100 µM (inactive) | > 100 µM (inactive) | – | – |
| Cn1c(=O)[nH]c2c(c1=O)C(=O)CN2 | > 100 µM (inactive) | < 0.01 µM (active) | > 100 µM (inactive) | > 100 µM (inactive) | > 100 µM (inactive) | – | > 100 µM (inactive) | > 100 µM (inactive) | > 100 µM (inactive) | – | > 100 µM (inactive) | > 100 µM (inactive) | 36.2 µM (inactive) | > 100 µM (inactive) | > 100 µM (inactive) | > 100 µM (inactive) | > 100 µM (inactive) | > 100 µM (inactive) | – | – |
| N=C(N)NS(=O)(=O)c1ccc(Nc2c3ccccc3nc3c(C(=O)N4CCN(CCO)CC4)ccc(Cl)c23)cc1 | > 100 µM (inactive) | > 100 µM (inactive) | > 100 µM (inactive) | > 100 µM (inactive) | > 100 µM (inactive) | > 100 µM (inactive) | > 100 µM (inactive) | > 100 µM (inactive) | > 100 µM (inactive) | – | > 100 µM (inactive) | > 100 µM (inactive) | > 100 µM (inactive) | > 100 µM (inactive) | > 100 µM (inactive) | > 100 µM (inactive) | > 100 µM (inactive) | > 100 µM (inactive) | – | – |
| C[Si](C)(C)CC(N)=O | > 100 µM (inactive) | > 100 µM (inactive) | > 100 µM (inactive) | > 100 µM (inactive) | > 100 µM (inactive) | > 100 µM (inactive) | > 100 µM (inactive) | > 100 µM (inactive) | > 100 µM (inactive) | – | > 100 µM (inactive) | > 100 µM (inactive) | > 100 µM (inactive) | > 100 µM (inactive) | > 100 µM (inactive) | > 100 µM (inactive) | > 100 µM (inactive) | > 100 µM (inactive) | – | – |
| CCN(CC)c1ccc2cc(C(=O)Nc3ccc4[nH]c(C(=O)N5C[C@@H](CCl)c6c5cc(OC(=O)Nc5ccccc5)c5[nH]cc(C)c65)cc4c3)oc2c1 [CARZELESIN] | 678 µM (inactive) | > 1000 µM (inactive) | 306 µM (inactive) | 0.000506 µM (active) | 5.28e-05 µM (active) | 4.61e-05 µM (active) | 284 µM (inactive) | 552 µM (inactive) | 0.000426 µM (active) | 0.000708 µM (active) | – | 0.000256 µM (active) | – | 9.08e-05 µM (active) | 0.000168 µM (active) | 434 µM (inactive) | 0.000479 µM (active) | 668 µM (inactive) | – | – |
